The text below walks through data of ChEMBL document CHEMBL1142824, “Discovery of a novel, potent and selective human beta3-adrenergic receptor agonist” (Bioorg Med Chem Lett, 2005).

As usually defined, the EC50 is the concentration that produces a half-maximal response. Higher therefore signals weaker potency. By bioavailability is commonly meant dose-corrected exposure relative to a reference, in per cent. By half-life is commonly meant how long it takes for the measured level to halve. The term Cmax denotes the peak of the concentration-time curve. The AUC is the area under the concentration-time curve, a measure of exposure.

Data set [1] deals with Beta-3 adrenergic receptor (Homo sapiens, UniProt P13945). In words: Agonistic activity was assessed by measuring cAMP accumulation in CHO cell lines expressing cloned human Beta-3 adrenergic receptor. Type of data set: functional, cell-based. On the technique in general: cAMP levels reflect the balance of adenylyl cyclase and phosphodiesterase activity.
Sequence of Beta-3 adrenergic receptor (P13945 whole entry): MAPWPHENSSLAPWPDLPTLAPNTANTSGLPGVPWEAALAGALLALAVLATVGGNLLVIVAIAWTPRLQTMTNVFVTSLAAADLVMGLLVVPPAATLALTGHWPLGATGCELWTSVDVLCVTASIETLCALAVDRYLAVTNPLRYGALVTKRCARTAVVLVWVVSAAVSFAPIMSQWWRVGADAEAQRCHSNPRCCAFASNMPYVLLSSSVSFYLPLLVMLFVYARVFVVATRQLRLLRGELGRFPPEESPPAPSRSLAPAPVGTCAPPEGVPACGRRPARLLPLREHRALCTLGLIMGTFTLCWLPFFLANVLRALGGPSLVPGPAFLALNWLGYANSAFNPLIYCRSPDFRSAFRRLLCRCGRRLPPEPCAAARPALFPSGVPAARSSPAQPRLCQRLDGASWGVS
Data set [2] deals with Beta-1 adrenergic receptor (Homo sapiens, UniProt P08588).
Sequence of Beta-1 adrenergic receptor (P08588 whole entry): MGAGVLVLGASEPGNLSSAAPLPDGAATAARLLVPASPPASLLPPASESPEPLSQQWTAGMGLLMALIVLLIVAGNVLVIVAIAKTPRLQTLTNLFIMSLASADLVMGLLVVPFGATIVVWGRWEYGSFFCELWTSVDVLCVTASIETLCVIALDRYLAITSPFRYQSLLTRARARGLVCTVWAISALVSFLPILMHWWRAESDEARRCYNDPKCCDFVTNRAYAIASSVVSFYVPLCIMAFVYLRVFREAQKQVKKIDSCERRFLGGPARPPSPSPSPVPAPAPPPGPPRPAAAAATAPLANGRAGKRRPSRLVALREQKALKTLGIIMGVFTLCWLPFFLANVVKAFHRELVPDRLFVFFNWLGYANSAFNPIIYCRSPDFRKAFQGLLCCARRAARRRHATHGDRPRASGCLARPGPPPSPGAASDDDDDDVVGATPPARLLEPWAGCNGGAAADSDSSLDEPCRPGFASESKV
Description: Agonistic activity was assessed by measuring cAMP accumulation in CHO cell lines expressing cloned human Beta-1 adrenergic receptor
Data set [3] can be described thus: Percent bioavailability after intravenous dose of 0.32 mg/kg. Conditions: dog, in vivo. It is filed as ADME, organism-based, Canis lupus familiaris.
The target in data set [4] is Beta-2 adrenergic receptor (Homo sapiens, UniProt P07550). Kind of data set: Agonistic activity was assessed by measuring cAMP accumulation in CHO cell lines expressing cloned human Beta-2 adrenergic receptor. It is filed as functional, cell-based.
Sequence of Beta-2 adrenergic receptor (P07550 whole entry): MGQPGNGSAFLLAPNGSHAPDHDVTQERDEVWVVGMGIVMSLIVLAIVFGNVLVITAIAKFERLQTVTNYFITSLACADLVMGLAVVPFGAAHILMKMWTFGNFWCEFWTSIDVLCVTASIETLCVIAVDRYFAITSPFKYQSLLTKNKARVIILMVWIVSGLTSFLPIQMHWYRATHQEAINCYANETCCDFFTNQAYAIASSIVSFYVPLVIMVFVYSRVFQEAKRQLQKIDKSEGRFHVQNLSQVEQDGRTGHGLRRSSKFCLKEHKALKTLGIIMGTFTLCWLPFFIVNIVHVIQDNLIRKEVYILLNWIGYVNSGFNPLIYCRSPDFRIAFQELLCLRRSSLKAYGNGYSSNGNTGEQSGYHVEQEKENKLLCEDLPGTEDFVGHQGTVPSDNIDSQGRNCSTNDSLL
A short description of data set [5]: Half life of compound after intravenous dose of 1 mg/kg. Details: dose 1 mg/kg, route intravenous. Particulars: rat, in vivo. Type of data set: ADME, organism-based.
Data set [6] concerns the target Beta-2 adrenergic receptor and beta-3 adrenergic receptor (Homo sapiens) (UniProt P07550+P13945). Kind of data set: Ratio of agonistic activity to produce cAMP by stimulating beta-2 and beta-3 adrenergic receptor in chinese hamster ovary cells. It is filed as functional, cell-based.
Data set [7] can be described thus: Percent bioavailability after intravenous dose of 1 mg/kg. Type of data set: ADME, organism-based. Particulars: rat, in vivo.
The nature of data set [8]: Total clearance rate after intravenous dose of 0.32 mg/kg. Conditions: dog, in vivo, read-out: CLtot. Details: dose 0.32 mg/kg, route intravenous. Type of data set: ADME, organism-based, Canis lupus familiaris.
Data set [9] in a line: Half life of compound after intravenous dose of 0.32 mg/kg. Type of data set: ADME, organism-based, Canis lupus familiaris. Details: dose 0.32 mg/kg, route intravenous. Conditions: dog, in vivo.
A short description of data set [10]: Maximum plasma concentration after orally administered dose of 3.2 mg/kg. It is filed as ADME, organism-based. Further details: dose 3.2 mg/kg, route oral. Conditions: rat, po.
A short description of data set [11]: Area under concentration-time curve after orally administered dose of 3.2 mg/kg. It is filed as ADME, organism-based. Details: dose 3.2 mg/kg, route oral. Conditions: rat, in vivo, po.
Data set [12] in a line: Maximum plasma concentration after orally administered dose of 0.32 mg/kg. Type of data set: ADME, organism-based, Canis lupus familiaris. Further details: dose 0.32 mg/kg, route oral. Particulars: dog, po.
Data set [13] in a line: Area under concentration-time curve after orally administered dose of 0.32 mg/kg. Details: dose 0.32 mg/kg, route oral. Type of data set: ADME, organism-based, Canis lupus familiaris. Conditions: dog, in vivo, po.
Data set [14] in a line: Total clearance rate after intravenous dose of 1 mg/kg. Details: dose 1 mg/kg, route intravenous. Type of data set: ADME, organism-based. Conditions: rat, in vivo, read-out: CLtot.

Consider `O=C(Nc1ccccc1)Nc1ccc(CCNC[C@H](O)COc2ccccc2)cc1`, for which the EC50 worked out at 1.6 nM in data set [1] and 3.6 nM in data set [2].
The corresponding values for `O=C(Nc1ccc(C[C@@H](CO)NC[C@H](O)COc2ccccc2)cc1)Nc1cccc(C(=O)O)c1` are 1.5 nM and 1.3 nM.
In the same order, the values of `CCCNC(=O)Nc1ccc(C[C@@H](CO)NC[C@H](O)COc2ccccc2)cc1` are 8.3 nM and 51 nM.
On to `O=C(Nc1ccccc1)Nc1ccc(C[C@@H](CO)NC[C@H](O)COc2ccccc2)cc1`, for which the bioavailability in [3] turned out to be 20.3%; in data set [7], 1.1%. Besides, the EC50 in data set [4] is > 100 nM; in [1], 0.5 nM; in [2] it was 20 nM. The same compound showed a T1/2 in data set [5] of 1.3 h. For the same compound, the Selectivity in data set [6] was > 200. Further, the clearance in data set [8] worked out at 24.2 mL/min/kg; in [14] it was 142 mL/min/kg. In data set [9], this compound showed a half-life of 8.1 h. Further, the Cmax was found to be 4.2 ng/mL in [10] and 52.6 ng/mL in data set [12]. Besides, the AUC stood at 4.2 ng·h/mL in data set [11] and 140 ng·h/mL in data set [13].
For `O=C(Nc1ccc(C[C@@H](CO)NC[C@H](O)COc2ccccc2)cc1)NC1CCCCC1`, the EC50 in data set [1] came to 2.1 nM; in data set [2], 15 nM.
The corresponding values for `COc1cccc(NC(=O)Nc2ccc(C[C@@H](CO)NC[C@H](O)COc3ccccc3)cc2)c1` are 0.8 nM and 4 nM.
In the same order, the values of `O=C(Nc1ccc(C[C@@H](CO)NC[C@H](O)COc2ccccc2)cc1)Nc1cccc([N+](=O)[O-])c1` are 1 nM and 0.9 nM.
Turning to `CC(C)NC(=O)Nc1ccc(C[C@@H](CO)NC[C@H](O)COc2ccccc2)cc1`, the EC50 in [1] is 4.9 nM; in [2], 27 nM.
On to `COc1ccccc1NC(=O)Nc1ccc(C[C@@H](CO)NC[C@H](O)COc2ccccc2)cc1`, for which the EC50 came to 1.1 nM in data set [1] and 12 nM in data set [2].
In the same order, the values of `COc1ccc(NC(=O)Nc2ccc(C[C@@H](CO)NC[C@H](O)COc3ccccc3)cc2)cc1` are 2.5 nM and 2.2 nM.
Regarding `O=C(Nc1ccccc1)Nc1ccc(C[C@@H](CO)NC[C@H](O)COc2cccc3[nH]c4ccccc4c23)cc1`, the EC50 in [1] was 22 nM. In other words, the double-digit nanomolar range.
On the same count and under the same terms, under `O=C(Nc1ccccc1)Nc1ccc(C[C@@H](CO)NC[C@H](O)c2cccc(Cl)c2)cc1` stands 74 nM.
